Publication PMC2605449, “Modification of carbonic anhydrase II with acetaldehyde, the first metabolite of ethanol, leads to decreased enzyme activity” (BMC Biochemistry, 2008)

Target: T1, recombinant human CA II (carbonic anhydrase isozyme II) (Homo sapiens, UniProt P00918, S2A)
T1 construct: gene CA2; recombinant in E. coli, full length, initiator Met removed, second residue Ser changed to Ala by cloning
Assay: end-point titration (Maren) with spectrophotometric colour determination
Assay type: biochemical
Details: covalent; pretreated […] h at […] °C, […] NaBH3(CN) added after […] h (N-ethyllysine adducts); CO2 substrate, ice-cold

% reduction in activity at 100 mM: 23.7%
Structure (SMILES): CC=O [acetaldehyde]
